From patent publication US20170334919A1, “2-((4-AMINO-3-(3-FLUORO-5-HYDROXYPHENYL)-1H-PYRAZOLO[3,4-D]PYRIMIDIN-1 -YL)METHYL)-3-(2-(TRIFLUORO-MET HYL)BENZYL)QUINAZOLIN-4(3H)-ONE DERIVATIVES AND THEIR USE AS PHOSPHOINOSITIDE 3-KINASE INHIBITORS” (RESPIVERT LTD., priority 2013, published 2017) come the findings set out here.

Read-outs that look alike come from different tables or passages of the source. Where only a bound is given, the exact number is not on record here.

One data set relates to IFNγ-primed U937 cells. In words: Superoxide anion production assay (zymosan-induced ROS). In kind it is cell-based. The settings on record: Homo sapiens, U-937; read-out: REC50, Zymosan-induced ROS production in IFNγ-primed U937 cells. The protocol:
As a means of assessing PI3Kδ dependent cell function, superoxide anion production in IFNγ-primed U937 cells was evaluated by a chemiluminescence assay. The U937 cells (purchased from ATCC, Manassas, Va.) were maintained in RPMI 1640 (Invitrogen Ltd., Paisley, UK) with 10% FCS at 37° C. The cells were suspended at a density of 10^7cells/mL in 40 mL 10% FCS RPMI 1640, and treated with 20 μL of 100 μg/mL IFNγ solution (final concentration: 50 ng/mL), and incubated at 37° C., 5% CO2 for 4 days.
IFNγ-primed U937 cells were seeded at 0.2×10^6 cells/well in a 96-well plate, and pre-incubated with test compounds for 2 hr in starvation media (0.5% FCS RPMI1640-phenol red free). Zymosan A (10 mg) from Saccharomyses cerevisiae (ex Sigma-Aldlich) was resuspended in 1 mL of 150 mM NaCl and boiled at 100° C. for 15 min. After boiling, Zymosan particles were washed with 1 mL of PBS twice, and incubated with 0.5 mL of BioParticles™ opsonized reagents (Life technologies) for 60 min at 37° C. […] Chemiluminescence indicating released superoxide anion was measured every 15 min up to 60 min by luminometric measurement (Varioskan® Flash, Thermo-Fisher Scientific).
The data at 60 min after incubation was used for analysis. […] The relative EC50 values were calculated from the concentration-response curves generated by the serial dilutions of the test compounds using XL-Fit (idbs, Guildford, UK).

In the next data set the test system is d-U937 cells. Kind of data set: MTT assay, cell viability. It counts as cell-based, human. Conditions: 10 μg/mL. How it is done:
PMA-differentiated U937 cells were pre-incubated with test compound (10 μg/mL) or vehicle for 4 hr in 5% FCS or 10% FCS for 24 hr. The supernatant was replaced with new media (200 μL) and MTT stock solution (10 μL, 5 mg/mL) was added to each well. After 1 hr incubation, the media were removed, 200 μL of DMSO was added to each well and the plates were shaken lightly for 1 hr prior to reading the absorbance at 550 nm. The percentage loss of cell viability was calculated for each well relative to vehicle (0.5% DMSO)-treatment.
(Formazan colour is commonly taken as a measure of viable cells.)

The test system of a further data set is THP1 cells. In words: Chemotaxis to MCP1. It counts as cell-based. Conditions: Homo sapiens, THP-1; read-out: REC50, THP1 cell chemotaxis to MCP1. The protocol:
As a means of assessing PI3K γ dependent cell function, THP1 cell chemotaxis to MCP-1 was evaluated using a 48 well-chemotaxis chamber. THP1 cells from a human leukemic monocyte lymphoma cell line, (purchased from ATCC Manassas, Va.) were maintained in RPMI 1640 (Invitrogen Ltd., Paisley, UK) with 10% FCS at 37° C. Cells were re-suspended in 0.5% BSA/RPM11640 (2×10^6 cells/mL) and incubated for 10 min at 37° C., 5% CO2. Cell suspension aliquots (500 μL) were then treated either with compounds in neat DMSO or with DMSO as vehicle (2.5 μL) for 1hr (37° C., 5% CO2).
MCP1 (50 nM) was prepared in 0.5% BSA/RPM11640. MCP1 solution (50 μL) was added to each well in the bottom plate of a 48-well chemotaxis chamber (AP48, NeuroProbe Inc., Gaithersburg, Md.). A polycarbonate membrane (8 μm) was mounted on the bottom chamber, and then the top plate was mounted on the bottom chamber and filter membrane. […]
A solution of MTT (50 μL) in 10% FCS phenol red-free RPM11640 was added to each well, and the plate was incubated for 2 hr (37° C., 5% CO2). Neat DMSO (100 μL) was added to each well to extract formazan formed from MTT and the plates were shaken lightly for 1 hr prior to measuring the absorbance at 595 nm (Varioskan® Flash, Thermo-Fisher Scientific). […] Relative EC50 values were determined from concentration-inhibition curves using XL-Fit (idbs, Guildford, UK).

A further data set concerns PBMCs. In words: Cytostim-induced cytokine production in PBMCs. It counts as cell-based. Conditions: Homo sapiens, PBMC. The protocol:
As a means of assessing PI3Kδ-dependent cell function, cytostim-induced IL-4, IL-5, IL-13 and IFNγ production in PBMCs were evaluated by Luminex multiplex assay. All healthy volunteers were recruited by Quintiles Limited (London, UK), and blood samples were delivered to Respivert Ltd. This study was approved by the local Ethics Committee, and all subjects gave written informed consent.
PBMC suspensions (200 μL; 2×10^6 cells/mL) were added to a 96-well plate. Cells were treated with either test compounds in neat DMSO or DMSO as vehicle (2 μL) and incubated at RT for 1 hr. Cytostim (Miltentyi Biotec, Surrey, UK) was introduced at a ratio of 1:50 and the cells were incubated for 20 hr (37° C.; 5% CO2). Plates were spun at 500×g for 5 min and the supernatant collected. A high sensitivity cytokine magnetic bead kit (#HSCYTMAG-60SK, Millipore, Watford, UK) was used to measure the four analytes (IL-4, IL-5, IL-13 and IFNγ) by Luminex as follows: The magnetic antibody beads were multiplexed and incubated in a 96-well plate with standard, media only or sample (50 μL) overnight with shaking at 4° C. After washing twice with Millipore wash buffer provided in the kit using a magnetic plate washer, the beads were incubated for 1 hr with detection antibody (50 μL) with shaking at RT. A streptavidin-phycoerythrin solution provided in the kit was added for 30 min with shaking at RT. After washing, the beads were re-suspended in sheath fluid (150 μL) and analysed immediately. The Luminex system was set up to count 50 beads and the amount of each analyte in the supernatant was calculated against a standard curve. The IC50 values were determined from concentration-inhibition curves using XL-Fit (IDBS, Guildford, UK)

In data set [1] the test system is cigarette smoke-induced cell accumulation and biomarkers in murine BALF. In words: Cigarette smoke model. It counts as in vivo, A/J mice. How it is done:
A/J mice (males, 5 weeks old) were exposed to cigarette smoke (4% cigarette smoke, diluted with compressed air) for 30 min/day for 11 days using a Tobacco Smoke Inhalation Experiment System for small animals (Model SIS-CS; Sibata Scientific Technology, Tokyo, Japan). Test substances were administered once daily for 3 days after the final cigarette smoke exposure (intra-nasal dose comprising 35 μL of solution in 50% DMSO/isotonic saline).
At 12 hr after administration of the last dose, animals were anesthetized, the trachea was cannulated and bronchial alveolar lavage (BAL) was carried out by the instillation into and then withdawal from the lungs, of PBS (100 mL/kg). Total cell numbers in the BALF samples were measured using a haemocytometer under a phase-contrast microscope. The proportions of alveolar macrophages and neutrophils were determined by FACS analysis using anti-mouse MOMA2-FITC (macrophage) or anti-mouse 7/4 (neutrophil).
Cells were suspended in PBS and were incubated with anti-MOMA2-FITC (2 μg/mL, Catalogue no SM065F, Acris Antibodies GmbH, Herford, Germany) or anti-7/4-FITC (2 μg/mL, Catalogue no CL050F, Acris Antibodies GmbH, Herford, Germany) for 30 min at 30° C., and also counterstained with propidium iodide (2 μg/mL) to allow exclusion of necrotic cells. The cells were washed with PBS, and transferred to FACS tubes. Samples was set in a flow cytometer (ALTRA II; Beckman Coulter Japan, Tokyo, Japan), and a single-parameter FL2 [PMT2] (FITC) histogram with log x-axis was plotted to illustrate relative intensity of FITC.
Data files are stored for subsequent analysis using Kaluza analysis software (ver. 1.2) to calculate the proportion of each cell type. The levels of CXCL1(KC), MCP1, TNFα, IL-17 or osteopontin in BALF were determined using Quentikine® mouse KC, MCP1, TNFα, IL-17 or osteopontin ELISA kit (R&D systems, Inc., Minneapolis, Minn., USA). The presence of malondialdehyde was measured using OxiSelect® TBARS Assay Kit (MDA Quantitation; Cell Biolabs Inc, San Diego, Calif., USA).

On to `Nc1ncnc2c1c(-c1cc(O)cc(F)c1)nn2Cc1nc2cccc(C#CCOCCOCCO)c2c(=O)n1Cc1ccccc1C(F)(F)F` [Compound (Ia), 2-((4-Amino-3-(3-fluoro-5-hydroxyphenyl)-1H-pyrazolo[3,4-d]pyrimidin-1-yl)methyl)-5-(3-(2-(2-hydroxyethoxy)ethoxy)prop-1-yn-1-yl)-3-(2-(trifluoromethyl)benzyl)quinazolin-4(3H)-one], for which the EC50 in the data set on IFNγ-primed U937 cells is 143 nM; in the data set on THP1 cells it was more than 14200 nM. Besides, the “Cell Viability MTT Assay in d-U937 cells at 4 hr” value with d-U937 cells (4 hr) is “−ve (−ve indicates a value of <30% inhibition at 10 μg/mL)”. The “Cell Viability MTT Assay in d-U937 cells at 24 hr” value with d-U937 cells (24 hr) is recorded as “−ve (−ve indicates a value of <30% inhibition at 10 μg/mL)”. Besides, the IC50 with PBMCs (read-out: IC50, Cytostim-induced IFNγ in PBMCs) came out at 60.8 nM; in the data set with PBMCs (read-out: IC50, Cytostim-induced IL-4 in PBMCs) it was 674 nM; in the data set with PBMCs (read-out: IC50, Cytostim-induced IL-5 in PBMCs) it was 14.5 nM; in the data set on PBMCs (read-out: IC50, Cytostim-induced IL-13 in PBMCs), 6.1 nM.

Regarding `C[C@@H]1C[C@H]2[C@@H]3CCC4=CC(=O)C=C[C@]4(C)[C@@]3(F)[C@@H](O)C[C@]2(C)[C@@]1(O)C(=O)CO` [dexamethasone, reference compound], the “activity in the cigarette smoke model” value in data set [1] (0.3-10 mg/kg, p.o.) is “inactive”.

For `CCC(=O)O[C@]1(C(=O)SCF)[C@H](C)C[C@H]2[C@@H]3C[C@H](F)C4=CC(=O)C=C[C@]4(C)[C@@]3(F)[C@@H](O)C[C@@]21C` [fluticasone propionate, reference compound], in data set [1] (dose used for co-administration with compound (I)), the “effect as monotherapy in the cigarette smoke model” value is “lacks any significant effect as monotherapy”.

A word on the IC50: it is the concentration needed to halve the response being measured.
